Results on 6 molecules are retold here after patent US20260157964A1, “LIPOPHILIC STATIN COMPOSITION WITH IMPROVED SOLUBILITY AND PERMEABILITY AND USES THEREOF” (KOREA INSTITUTE OF SCIENCE AND TECHNOLOGY, priority 2021, published 2026).

Values after ≈ are worked out from the molar mass of the structure shown.

What is called half-life is the time needed for the level to fall by half in the phase considered. Broadly, the Tmax is the time at which the peak concentration occurs.

The test system of one data set is CT26 cells. The data set can be described thus: In vitro cytotoxicity in CT26 cells (CCK-8). The data set is classed as cell-based, mouse. On the procedure: Specifically, 5×10^3 CT26 cells were inoculated on 100 μL of DMEM and a Roswell Park Memorial Institute (RPMI) medium, respectively supplemented with 10% (v/v) FBS and 1% penicillin/streptomycin. […] DL and CD were also treated in the same volume and each of the concentrations. After 24 hours of the culturing, 10 μL of a WST-8 solution [2-2-methoxy-4-nitrophenyl)-3-(4-nitrophenyl)-5-(2,4-disulfophenyl)-2H-tetrazolium monosodium salt] was diluted with 100 μL of each medium, followed by culturing for 2 hours. Then, absorbance was measured using a microplate reader (PerkinElmer multimode plate reader) at 450 nm. Percentages of viable cells are shown by comparing the number of treated cells with that of untreated cells.

Data set [1] in a line: Pharmacokinetics of OP (platinum) in rats, repeated oral dosing. The data set is classed as in vivo, SD rats. Here is the method: After SD rats were orally administered with various concentrations of ODSF repeatedly, the rats were divided into 5 groups (4 rats per group) to evaluate pharmacokinetic properties of OP. The rats were orally administered with a daily dose of 400 μL of OP (10) (OP dispersed in water, 10 mg/kg) or ODSF (2.5), ODSF (10), and ODSF (20) (containing 2.5 mg/kg, 10 mg/kg, and 20 mg/kg OP, respectively), for 14 days. […] Plasma concentrations of OP were measured based on the platinum concentration, after decomposition with nitric acid at 100° C., by inductively coupled plasma-mass spectroscopy (ICP-MS) at a high frequency power of 1450 W, at a coolant flow rate of 12 L/min, at an axillary flow rate of 2.3 L/min, and at a nebulizer flow rate of 0.89 L/min.
Plasma profiles of not only OP in water (10 mg/kg) [OP (10)] but also ODSF including 2.5 mg/kg, 10 mg/kg, and 20 mg/kg OP [ODSF (2.5), ODSF (10), and ODSF (20), respectively] were identified after 2-week continuous metronomic administration in comparison with a single IV bolus dose of 5 mg/kg OP [OP-IV (5)] administered on day 1 and day 14.

The next data set can be described thus: in vivo. The following applies: SD, rat.
Where [2] appears, read: oral once a day 14 days, 10 mg/kg OP.

Regarding `COC(=O)[C@H](CCCCN)NC(=O)CC[C@@H](C)[C@H]1CC[C@H]2[C@@H]3CC[C@@H]4C[C@H](O)CC[C@]4(C)[C@H]3C[C@H](O)[C@]12C` [DL, N^α-deoxycholyl-I-lysyl-methylester], the Cell viability with CT26 cells (CT26, carrier amount matching maximum SIMVA concentration of 200 μg/mL) was found to be 77.1%.

As for `O=C1[O][Pt]2([NH][C@@H]3CCCC[C@H]3[NH]2)[O]C1=O` [OP, oxaliplatin], in data set [1] (IV, 5 mg/kg OP), the “AUCinf, on day 14” value turned out to be 8120 ± 2470 ng·h/mL; the “AUClast, on day 14” value was 5460 ± 1460 ng·h/mL; the “Cmax, on day 14” value was 1060 ± 337 ng/mL. This molecule also yielded a Bioavailability in data set [1] (IV, 5 mg/kg OP (reference)) of 100%. For the same molecule, the “T1/2, on day 14” value in data set [1] (IV, 5 mg/kg OP on day 1 and day 14, platinum, n=4) worked out at 15.8 ± 1.32 h. In addition, in data set [1] (setting [2]), the “AUCinf, on day 14” value was 1500 ± 196 ng·h/mL; the “AUClast, on day 14” value was 775 ± 124 ng·h/mL; the Bioavailability is recorded as 7.09 ± 1.14%; the “Cmax, on day 14” value is 53 ± 14 ng/mL. In data set [1] (setting [2]), the “T1/2, on day 14” value was found to be 23.7 ± 0.723 h and the “Tmax, on day 14” value was 0.833 ± 0.289 h.

On to `CCC(C)(C)C(=O)O[C@H]1C[C@@H](C)C=C2C=C[C@H](C)[C@H](CC[C@@H]3C[C@@H](O)CC(=O)O3)[C@H]21` [SIMVA in DMSO (50), simvastatin], for which the half-life in “in vivo” (plasma, po, 50 mg/kg) is 1.22 h.

`CCC(C)(C)C(=O)O[C@H]1C[C@@H](C)C=C2C=C[C@H](C)[C@H](CC[C@@H]3C[C@@H](O)CC(=O)O3)[C@H]21` [SIMVA, simvastatin]: the half-life in the data set “in vivo” (in vivo, po, 50 mg/kg) was 1.6 h. The Tmax in the data set “in vivo” (plasma, po, 50 mg/kg) worked out at 1.5 h. In addition, the IC50 in the data set with CT26 cells (Mus musculus, CT26, 24 h, read-out: IC50 (concentration of a drug required to kill 50% of cells)) turned out to be 183 µg/mL (≈ 437 µM).

For `CCC(C)(C)C(=O)O[C@H]1C[C@@H](C)C=C2C=C[C@H](C)[C@H](CC[C@@H]3C[C@@H](O)CC(=O)O3)[C@H]21` [SIMVA-IP (10), simvastatin], in the data set “in vivo” (plasma, ip, 10 mg/kg), the Tmax was found to be 0.5 h and the half-life was 0.54 h.

As to `CCC(C)(C)C(=O)O[C@H]1C[C@@H](C)C=C2C=C[C@H](C)[C@H](CC[C@@H]3C[C@@H](O)CC(=O)O3)[C@H]21` [SIMVA-IV (10), simvastatin], the half-life in the data set “in vivo” (plasma, iv, 10 mg/kg) was 0.39 h.
